The values below are quoted from earlier work in patent EP2681209B1, “COMPOUNDS AND METHODS FOR THE TREATMENT OF PAIN AND OTHER DISORDERS” (Aquilus Pharmaceuticals, Inc, priority 2011, dated 2012).

One data set deals with TNF-alpha. To be noted: background literature; cited from earlier work.
In the next data set the target is MMP-9 (Homo sapiens, UniProt P14780). The note with it: background literature; cited from earlier work.
MMP-9, sequence (P14780 94-707, species assumed): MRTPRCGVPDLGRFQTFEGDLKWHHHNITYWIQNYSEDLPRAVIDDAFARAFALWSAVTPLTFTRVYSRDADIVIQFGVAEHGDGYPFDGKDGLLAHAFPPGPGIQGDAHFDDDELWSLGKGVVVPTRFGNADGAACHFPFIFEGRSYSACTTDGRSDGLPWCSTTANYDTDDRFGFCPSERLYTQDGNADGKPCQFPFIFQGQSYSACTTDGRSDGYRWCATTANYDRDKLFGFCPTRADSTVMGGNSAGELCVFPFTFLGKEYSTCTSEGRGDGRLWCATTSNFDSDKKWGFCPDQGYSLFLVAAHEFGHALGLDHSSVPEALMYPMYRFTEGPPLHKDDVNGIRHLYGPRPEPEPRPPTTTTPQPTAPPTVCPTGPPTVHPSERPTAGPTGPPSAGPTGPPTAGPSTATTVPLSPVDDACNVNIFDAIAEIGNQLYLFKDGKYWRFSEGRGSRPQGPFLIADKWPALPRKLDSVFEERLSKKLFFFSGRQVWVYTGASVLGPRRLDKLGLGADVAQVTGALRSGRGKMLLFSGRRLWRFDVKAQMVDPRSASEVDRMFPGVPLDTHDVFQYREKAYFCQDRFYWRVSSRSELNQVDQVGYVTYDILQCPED

Take `CC(C)C[C@H](CC(=O)NO)C(=O)N[C@@H](Cc1ccc2ccccc2c1)C(=O)N[C@@H](C)C(N)=O` [TAPI-0]: the IC50 (as a rule, the concentration needed to halve the response being measured) is about 100 nM in the data set with TNF-alpha and 0.5 nM at MMP-9.
